Reference: US9546157B2, “Asymmetric piperidinyl-substituted ureas as medicines” (Helsinn Healthcare SA, priority 2014, dated 2017)

Key:
GHSR1a [1] = molecular target: T1, GHSR1a (Homo sapiens, UniProt Q92847); test: Calcium FLIPR assay, GHSR-1a antagonism (reduction of ghrelin response); type: cell-based; settings: HEK293/GHSR1a cells, ghrelin 10 nM
T1 construct: expressed in transfected cells; host or cells: HEK293
Method in brief: (§1)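 Antagonist potency reflects lowering of the 10 nM ghrelin calcium signal in HEK293/GHSR1a cells, with compound and ghrelin given at t=20 sec. Agonism was scored from the 2-minute fluorescence response to compound alone.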

GHSR1a [2] = molecular target: T1, GHSR1a; test: Calcium FLIPR assay, GHSR-1a agonism; type: cell-based; parameters: Emax: unit not given here; settings: HEK293/GHSR1a cells
Method in brief: as §1

T1 sequence (Q92847 whole entry): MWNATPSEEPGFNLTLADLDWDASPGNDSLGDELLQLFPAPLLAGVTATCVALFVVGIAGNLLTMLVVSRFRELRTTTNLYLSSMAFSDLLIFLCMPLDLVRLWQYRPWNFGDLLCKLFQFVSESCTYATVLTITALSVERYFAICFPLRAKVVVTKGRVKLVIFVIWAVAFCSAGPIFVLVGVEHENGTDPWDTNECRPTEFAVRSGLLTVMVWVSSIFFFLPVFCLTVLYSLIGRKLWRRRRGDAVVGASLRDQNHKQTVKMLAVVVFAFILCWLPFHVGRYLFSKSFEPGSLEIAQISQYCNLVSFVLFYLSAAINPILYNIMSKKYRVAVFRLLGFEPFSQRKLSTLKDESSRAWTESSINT

Row | SMILES | IC50 (GHSR1a [1]) | EC50 (GHSR1a [2]) | Emax (GHSR1a [2])
1 | COc1cc(OC)cc(-c2ccc(C(C)NC(=O)N(C)C3CCN(C)CC3)c(Cl)c2Cl)c1 (stereo not shown) [Compound H0611, 3-(1-(2,3-dichloro-3′,5′-dimethoxy-[1,1′-biphenyl]-4-yl)ethyl)-1-methyl-1-(1-methylpiperidin-4-yl)urea] | 2300 nM | > 30000 nM | –
2 | CC(NC(=O)N(C)C1CCN(C)CC1)c1ccc(C(=O)Nc2cccs2)c(Cl)c1Cl (stereo not shown) [Compound H0773, 2,3-dichloro-4-(1-(3-methyl-3-(1-methylpiperidin-4-yl)ureido)ethyl)-N-(thiophen-2-yl)benzamide] | 608 nM | > 30000 nM | –
3 | CC(NC(=O)N(C)C1CCN(C)CC1)c1ccc(-c2cncc([N+](=O)[O-])c2)c(Cl)c1Cl (stereo not shown) [Compound H0766, 3-(1-(2,3-dichloro-4-(5-nitropyridin-3-yl)phenyl)ethyl)-1-methyl-1-(1-methylpiperidin-4-yl)urea] | 171 nM | > 30000 nM | –
4 | COc1cccc(-c2ccc(C(C)NC(=O)N(C)C3CCN(C)CC3)c(Cl)c2Cl)c1 (stereo not shown) [Compound H0606, 3-(1-(2,3-dichloro-3′-methoxy-[1,1′-biphenyl]-4-yl)ethyl)-1-methyl-1-(1-methylpiperidin-4-yl)urea] | 24 nM | 31 nM | 2336
5 | C=Cc1cncc(-c2ccc(C(C)NC(=O)N(C)C3CCN(C)CC3)c(Cl)c2Cl)c1 (stereo not shown) [Compound H0706, 3-(1-(2,3-dichloro-4-(5-vinylpyridin-3-yl)phenyl)ethyl)-1-methyl-1-(1-methylpiperidin-4-yl)urea] | 116 nM | 91 nM | 2111
6 | CN1CCC(N(C)C(=O)NC(CO)c2ccc(-c3cncnc3)c(Cl)c2Cl)CC1 (stereo not shown) [Compound H0670, 3-(1-(2,3-dichloro-4-(pyrimidin-5-yl)phenyl)-2-hydroxyethyl)-1-methyl-1-(1-methylpiperidin-4-yl)urea] | 523000 nM | > 30000 nM | –
7 | CC(NC(=O)N(C)C1CCN(C)CC1)c1ccc(-c2ccc3[nH]ccc3c2)c(Cl)c1Cl (stereo not shown) [Compound H0515, 3-(1-(2,3-dichloro-4-(1H-indol-5-yl)phenyl)ethyl)-1-methyl-1-(1-methylpiperidin-4-yl)urea] | 40 nM | 885 nM | –
8 | C#Cc1ccc(C(CC2CC2)NC(=O)N(OC)C2CCN(C)CC2)c(Cl)c1Cl (stereo not shown) [Compound H0740, 3-(2-cyclopropyl-1-(2,3-dichloro-4-ethynylphenyl)ethyl)-1-methoxy-1-(1-methylpiperidin-4-yl)urea] | 7 nM | 1.5 nM | 3620
9 | CC(NC(=O)N(C)C1CCN(C)CC1)c1ccc(C#Cc2ccc(C(N)=O)s2)c(Cl)c1Cl (stereo not shown) [Compound H0776, 5-((2,3-dichloro-4-(1-(3-methyl-3-(1-methylpiperidin-4-yl)ureido)ethyl)phenyl)ethynyl)thiophene-2-carboxamide] | 120 nM | > 4000 nM | –
10 | CC(NC(=O)N(C)C1CCN(C)CC1)c1ccc(C#CCc2cccs2)c(Cl)c1Cl (stereo not shown) [Compound H0785, 3-(1-(2,3-dichloro-4-(3-(thiophen-2-yl)prop-1-yn-1-yl)phenyl)ethyl)-1-methyl-1-(1-methylpiperidin-4-yl)urea] | 33 nM | 90 nM | 2869
11 | CC(NC(=O)N(C)C1CCN(C)CC1)c1ccc(C#Cc2ccccn2)c(Cl)c1Cl (stereo not shown) [Compound H0734, 3-(1-(2,3-dichloro-4-(pyridin-2-ylethynyl)phenyl)ethyl)-1-methyl-1-(1-methylpiperidin-4-yl)urea] | 202 nM | > 30000 nM | –
12 | CC(NC(=O)N(C)C1CCN(C)CC1)c1ccc(C#CCO)c(Cl)c1Cl (stereo not shown) [Compound H0755, 3-(1-(2,3-dichloro-4-(3-hydroxyprop-1-yn-1-yl)phenyl)ethyl)-1-methyl-1-(1-methylpiperidin-4-yl)urea] | 12 nM | 10 nM | 2196
13 | COc1ccc(C(C#N)NC(=O)N(C)C2CCN(C)CC2)c(Cl)c1Br (stereo not shown) [Compound H0658, 3-((3-bromo-2-chloro-4-methoxyphenyl)(cyano)methyl)-1-methyl-1-(1-methylpiperidin-4-yl)urea] | 6 nM | 9 nM | 2400
14 | CCON(C(=O)NC(CC1CC1)c1ccc(-c2cnccn2)c(Cl)c1Cl)C1CCN(C)CC1 (stereo not shown) [Compound H0752, 3-(2-cyclopropyl-1-(2,3-dichloro-4-(pyrazin-2-yl)phenyl)ethyl)-1-ethoxy-1-(1-methylpiperidin-4-yl)urea] | 100 nM | > 30000 nM | –
15 | CON(C(=O)NC(CC1CC1)c1ccc(-c2cnccn2)c(Cl)c1Cl)C1CCN(C)CC1 (stereo not shown) [Compound H0741, 3-(2-cyclopropyl-1-(2,3-dichloro-4-(pyrazin-2-yl)phenyl)ethyl)-1-methoxy-1-(1-methylpiperidin-4-yl)urea] | 15 nM | > 30000 nM | –
16 | CC(=O)/C=C(\Cl)c1ccc(C(C)NC(=O)N(C)C2CCN(C)CC2)c(Cl)c1Cl (stereo not shown) [Compound H0702, (Z)-3-(1-(2,3-dichloro-4-(1-chloro-3-oxobut-1-en-1-yl)phenyl)ethyl)-1-methyl-1-(1-methylpiperidin-4-yl)urea] | 96 nM | 1100 nM | 1940
17 | CC(NC(=O)N(C)C1CCN(C)CC1)c1ccc(-c2cnc(N3CCN(C)CC3)nc2)c(Cl)c1Cl (stereo not shown) [Compound H0799, 3-(1-(2,3-dichloro-4-(2-(4-methylpiperazin-1-yl)pyrimidin-5-yl)phenyl)ethyl)-1-methyl-1-(1-methylpiperidin-4-yl)urea] | 5.4 nM | 14 nM | 5031
18 | CC(NC(=O)N(C)C1CCN(C)CC1)c1ccc(-c2cnc[nH]2)c2ccccc12 (stereo not shown) [Compound H0599, 3-(1-(4-(1H-imidazol-5-yl)naphthalen-1-yl)ethyl)-1-methyl-1-(1-methylpiperidin-4-yl)urea] | 212 nM | 478 nM | –
19 | CC(=O)Nc1cncc(-c2ccc(C(C)NC(=O)N(C)C3CCN(C)CC3)c(Cl)c2Cl)c1 (stereo not shown) [Compound H0712, N-(5-(2,3-dichloro-4-(1-(3-methyl-3-(1-methylpiperidin-4-yl)ureido)ethyl)phenyl)pyridin-3-yl)acetamide] | 420 nM | 220 nM | 1962
20 | CC(NC(=O)N(C)C1CCN(C)CC1)c1ccc(-c2ccoc2)c2ccccc12 (stereo not shown) [Compound H0598, 3-(1-(4-(furan-3-yl)naphthalen-1-yl)ethyl)-1-methyl-1-(1-methylpiperidin-\4-yl)urea] | 63 nM | 271 nM | –

Continued, values first:

Row | IC50 (GHSR1a [1]) | EC50 (GHSR1a [2]) | Emax (GHSR1a [2]) | SMILES
21 | 57 nM | > 30000 nM | – | CC(NC(=O)N(C)C1CCN(C)CC1)c1ccc(-c2cncc(CF)c2)c(Cl)c1Cl (stereo not shown) [Compound H0638, 3-(1-(2,3-dichloro-4-(5-(fluoromethyl)pyridin-3-yl)phenyl)ethyl)-1-methyl-1-(1-methylpiperidin-4-yl)urea]
22 | 63 nM | > 30000 nM | – | CC(NC(=O)N(C)C1CCN(C)CC1)c1ccc(-c2cncc(N)n2)c(Cl)c1Cl (stereo not shown) [Compound H0780, 3-(1-(4-(6-aminopyrazin-2-yl)-2,3-dichlorophenyl)ethyl)-1-methyl-1-(1-methylpiperidin-4-yl)urea]
23 | 197 nM | 100 nM | – | CC(NC(=O)N(C)C1CCN(C)CC1)c1ccc(-c2cnn(CCO)c2)c(Cl)c1Cl (stereo not shown) [Compound H0693, 3-(1-(2,3-dichloro-4-(1-(2-hydroxyethyl)-1H-pyrazol-4-yl)phenyl)ethyl)-1-methyl-1-(1-methylpiperidin-4-yl)urea]
24 | 99 nM | 153 nM | 4149 | CC(NC(=O)N(C)C1CCN(C)CC1)c1ccc(-c2cnc(C#N)nc2)c(Cl)c1Cl (stereo not shown) [Compound H0802, 3-(1-(2,3-dichloro-4-(2-cyanopyrimidin-5-yl)phenyl)ethyl)-1-methyl-1-(1-methylpiperidin-4-yl)urea]
25 | 202 nM | 394 nM | – | CC(NC(=O)N(C)C1CCN(C)CC1)c1ccc(C2=CCCCC2)c(Cl)c1Cl (stereo not shown) [Compound H0520, 3-(1-(2,3-dichloro-2′,3′,4′,5′-tetrahydro-[1,1′-biphenyl]-4-yl)ethyl)-1-methyl-1-(1-methylpiperidin-4-yl)urea]
26 | 11 nM | 6 nM | 3320 | CC(NC(=O)N(C)C1CCN(C)CC1)c1ccc(-c2nc(C3CC3)no2)c(Cl)c1Cl (stereo not shown) [Compound H0851, 3-(1-(2,3-dichloro-4-(3-cyclopropyl-1,2,4-oxadiazol-5-yl)phenyl)ethyl)-1-methyl-1-(1-methylpiperidin-4-yl)urea]
27 | 19 nM | > 30000 nM | – | CC(NC(=O)N(C)C1CCN(C)CC1)c1ccc(-c2ccc(N)cc2)c(Cl)c1Cl (stereo not shown) [Compound H0517, 3-(1-(4′-amino-2,3-dichloro-[1,1′-biphenyl]-4-yl)ethyl)-1-methyl-1-(1-methylpiperidin-4-yl)urea]
28 | 261 nM | > 30000 nM | – | CC(NC(=O)N(C)C1CCN(C)CC1)c1ccc(-c2sccc2CO)c(Cl)c1Cl (stereo not shown) [Compound H0664, 3-(1-(2,3-dichloro-4-(3-(hydroxymethyl)thiophen-2-yl)phenyl)ethyl)-1-methyl-1-(1-methylpiperidin-4-yl)urea]
29 | 5.7 nM | 9 nM | 3955 | CC(NC(=O)N(C)C1CCN(C)CC1)c1ccc(-c2ccc(C3CC3)nc2)c(Cl)c1Cl (stereo not shown) [Compound H0820, 3-(1-(2,3-dichloro-4-(6-cyclopropylpyridin-3-yl)phenyl)ethyl)-1-methyl-1-(1-methylpiperidin-4-yl)urea]
30 | 855 nM | 242 nM | 980 | CC(NC(=O)N(C)C1CCN(C)CC1)c1ccc(-c2cncc(CCl)n2)c(Cl)c1Cl (stereo not shown) [Compound H0786, 3-(1-(2,3-dichloro-4-(6-(chloromethyl)pyrazin-2-yl)phenyl)ethyl)-1-methyl-1-(1-methylpiperidin-4-yl)urea]
